Measurements from patent publication US7642244B2, “Neuropeptide-2 receptor (Y-2R) agonists and uses thereof” (Hoffmann-La Roche Inc., priority 2005, dated 2010).
Like-named read-outs stand apart in the source and are kept apart here.

Legend:
hypothalamic slices = hypothalamic slices in vitro; cited from earlier work
Y1R = molecular target: T1, Y1R (Homo sapiens, UniProt P25929); experiment: Calcium flux assay (FLIPR), Y1R; type: cell-based
T1 sequence (P25929 1-384): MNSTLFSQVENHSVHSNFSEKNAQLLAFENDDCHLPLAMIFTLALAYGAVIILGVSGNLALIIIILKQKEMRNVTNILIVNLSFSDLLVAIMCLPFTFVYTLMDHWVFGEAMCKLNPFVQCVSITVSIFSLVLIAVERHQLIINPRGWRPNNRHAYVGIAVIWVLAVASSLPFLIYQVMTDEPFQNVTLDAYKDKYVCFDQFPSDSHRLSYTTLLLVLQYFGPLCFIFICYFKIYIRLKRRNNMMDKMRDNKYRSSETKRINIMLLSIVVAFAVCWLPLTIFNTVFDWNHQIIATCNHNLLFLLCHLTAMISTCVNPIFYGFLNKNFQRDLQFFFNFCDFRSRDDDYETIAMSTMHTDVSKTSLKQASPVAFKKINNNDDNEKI
Protocol: (§1) During the incubation, test compounds were prepared at 3.5× the desired concentration in HBSS (20 mM HEPES)/0.05% BSA/1% DMSO and transferred to a 384-well plate for use on FLIPR® (FILPR, Fluorescent Imaging Plate Reader, is a registered trademark of Molecular Devices Corp.).
(§2) After incubation, both the cell and compound plates were brought to the FLIPR® and 20 μL of the diluted compounds were transferred to the cell plates by the FLIPR®. During the assay, fluorescence readings were taken simultaneously from all 384 wells of the cell plate every 1.5 seconds. Five readings were taken to establish a stable baseline, and then 20 μl of sample was rapidly (30 μl/sec) and simultaneously added to each well of the cell plate. The fluorescence was continuously monitored before, during and after sample addition for a total elapsed time of 100 seconds. Responses (increase in peak fluorescence) in each well following addition was determined. The initial fluorescence reading from each well, prior to ligand stimulation, was used as a zero baseline value for the data from that well. The responses were expressed as a percentage of maximal response of the positive control.

Y5R = molecular target: T2, Y5R (Homo sapiens, UniProt Q15761); experiment: Calcium flux assay (FLIPR), Y5R; type: cell-based
T2 sequence (Q15761 1-445): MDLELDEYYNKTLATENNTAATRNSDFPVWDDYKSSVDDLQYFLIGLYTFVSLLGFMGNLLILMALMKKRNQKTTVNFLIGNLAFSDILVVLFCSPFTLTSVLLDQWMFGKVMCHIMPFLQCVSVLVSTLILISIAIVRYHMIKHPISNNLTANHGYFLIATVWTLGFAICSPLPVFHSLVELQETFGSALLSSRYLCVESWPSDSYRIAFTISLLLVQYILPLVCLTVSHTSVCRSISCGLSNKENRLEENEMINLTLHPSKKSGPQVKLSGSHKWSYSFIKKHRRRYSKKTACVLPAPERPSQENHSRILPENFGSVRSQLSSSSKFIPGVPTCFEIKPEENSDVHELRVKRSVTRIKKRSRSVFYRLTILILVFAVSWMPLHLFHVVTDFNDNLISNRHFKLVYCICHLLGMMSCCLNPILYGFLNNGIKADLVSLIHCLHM
Protocol: as §1, §2

Y4R = Y4R (Homo sapiens, UniProt P50391); experiment: Calcium flux assay (FLIPR), Y4R; type: cell-based
Sequence of Y4R (P50391 whole entry): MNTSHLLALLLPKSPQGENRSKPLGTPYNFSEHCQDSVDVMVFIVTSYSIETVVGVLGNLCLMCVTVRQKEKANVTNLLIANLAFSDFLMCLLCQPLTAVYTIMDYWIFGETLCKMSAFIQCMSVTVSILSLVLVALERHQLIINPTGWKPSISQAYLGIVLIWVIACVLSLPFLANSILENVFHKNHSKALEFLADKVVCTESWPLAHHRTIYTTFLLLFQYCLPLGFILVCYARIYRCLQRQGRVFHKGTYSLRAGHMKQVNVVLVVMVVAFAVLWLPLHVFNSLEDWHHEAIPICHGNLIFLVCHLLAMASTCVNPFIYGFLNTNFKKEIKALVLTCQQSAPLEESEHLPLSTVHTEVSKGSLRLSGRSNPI
Protocol: as §1, §2

male DIO rats = conditions: 5 and 10 mg/kg, q48 hr, s.c., 3-week treatment, male DIO rats (FIG. 23)
Protocol: Male Sprague Dawley rats (7 weeks old) were obtained from Charles River Laboratories (USA) and housed in a temperature and humidity controlled environment with a 12 h light:12 h dark cycle. The rats were given ad libitum access to a high fat chow diet (HFD; 60% of dietary kcal as fat, Research Diets D12492) and water throughout the study. Following 7 weeks on the HFD, rats were sorted by body weight and caged singly.
All data shown are the mean ± standard error (s.e.m.). Statistical evaluation of the data was carried out using one-way ANOVA, followed by Dunnett's test to determine where statistically significant differences existed between vehicle and drug treated groups. Differences were considered statistically significant at P<005. Data analysis was carried out with GraphPad software (GraphPad Prism).

female db/db mice [1] = conditions: q48 hr, s.c.
Protocol: Female db/db mice (C57BL/KsJ-Lep^db/db, Jackson Laboratories, USA) were at 6 weeks of age when received. The mice were housed in a temperature and humidity controlled environment with a 12 h light: 12 h dark cycle, and given access to food (Purina rodent chow 5008) and water ad libitum. The mice (9 week old) were pre-bled 4 days prior to drug treatment, and those within a narrow range of fasted blood glucose levels were selected for the study in order to minimize variability between vehicle control and drug-treated groups. […] Basal fasting (2 to 6 hr) blood glucose measurements were conducted weekly. On study day 20, an oral glucose tolerance test was performed following a 6 hr fast. Blood samples were collected from tail clips for determination of baseline values (t=0 min). The mice were then gavaged with an oral bolus of glucose (1 g/kg), and additional blood samples were collected at regular intervals (t=30, 60, and 120 min) for glucose measurement. […] The area under the curve (AUC0-120 min) was determined using the trapezoid method.
All data shown are the mean ± standard deviation (s.d.). Statistical evaluation of the data was carried out using one-way ANOVA, followed by Dunnett's test to determine where statistically significant differences existed between vehicle and drug treated groups. Differences were considered statistically significant at P<0.05. […]

female db/db mice [2] = conditions: acute, 1 and 10 mg/kg, s.c., 28 hr prior to OGTT, female db/db mice (FIG. 24)
Protocol: Female db/db mice (C57BL/KsJ-Lep^db/db, Jackson Laboratories, USA) were at 6 weeks of age when received. The mice were housed in a temperature and humidity controlled environment with a 12 h light: 12 h dark cycle, and given access to food (Purina rodent chow 5008) and water ad libitum. The mice (12-weeks old) were pre-bled 4 days prior to study, and those within a narrow range of fasted blood glucose levels were selected for the study in order to minimize variability between vehicle control and drug-treated groups. […] Blood samples were collected from tail clips following a 6 hr fast for determination of baseline values (t=0 min). The mice were then gavaged with an oral bolus of glucose (1 g/kg), and additional blood samples were collected at regular intervals (t=30, 60 and 120 min) for glucose measurement. […] The area under the curve (AUC0-120 min) was determined using the trapezoid method.
All data shown are the mean ± standard deviation (s.d.). Statistical evaluation of the data was carried out using one-way ANOVA, followed by Dunnett's test to determine where statistically significant differences existed between vehicle and drug treated groups. […] Data analysis was carried out with GraphPad software (GraphPad Prism).

Question: With `N=C(N)NCCC[C@H](NC(=O)CC1(CC(=O)N2CCN(C3c4ccccc4NC(=O)c4ccccc43)CC2)CCCC1)C(=O)NCCn1c(=O)n(-c2ccccc2)n(-c2ccccc2)c1=O` (stereo partly shown) [BIIE0246] as the compound, how does the NPY release (hypothalamic slices) read?
Answer: increases NPY release

Question: With `CC[C@H](C)[C@H](N)C(=O)N[C@@H](CCCCN)C(=O)N1CCN(c2ccc3ncn(CC(=O)N[C@@H](CCCNC(=N)N)C(=O)N[C@@H](Cc4c[nH]cn4)C(=O)N[C@@H](Cc4ccc(O)cc4)C(=O)N[C@@H](CC(C)C)C(=O)N[C@@H](CC(N)=O)C(=O)N[C@@H](Cc4c[nH]c5ccccc45)C(=O)N[C@H](C(=O)N[C@H](C(=O)N[C@@H](CCCNC(=N)N)C(=O)N[C@@H](CCC(N)=O)C(=O)N(C)[C@@H](CCCNC(=N)N)C(=O)N[C@@H](Cc4ccc(O)cc4)C(N)=O)[C@@H](C)O)C(C)C)c(=O)c3c2)CC1` [Example 25] as the compound, how does the EC50 (Y1R) read?
Answer: 0.298 µM

Question: And the EC50 (Y5R)?
Answer: > 5 µM

Question: What about the EC50 (Y4R) of the same compound?
Answer: > 5 µM

Question: For `CCCC[C@H](NC(=O)[C@@H](N)[C@@H](C)CC)C(=O)N1CCN(c2ccc3ncn(CC(=O)N[C@@H](CCCNC(=N)N)C(=O)N[C@@H](Cc4c[nH]cn4)C(=O)N[C@@H](Cc4ccc(O)cc4)C(=O)N[C@@H](CC(C)C)C(=O)N[C@@H](CC(N)=O)C(=O)N[C@@H](Cc4c[nH]c5ccccc45)C(=O)N[C@H](C(=O)N[C@H](C(=O)N[C@@H](CCCNC(=N)N)C(=O)N[C@@H](CCC(N)=O)C(=O)N(C)[C@@H](CCCNC(=N)N)C(=O)N[C@@H](Cc4ccc(O)cc4)C(N)=O)[C@@H](C)O)C(C)C)c(=O)c3c2)CC1` [Example 26], which EC50 (Y1R) is on record?
Answer: > 5 µM

Question: And the EC50 (Y5R)?
Answer: > 5 µM

Question: And the EC50 (Y4R)?
Answer: > 5 µM

Question: Which EC50 (Y1R) does the source give for `CC[C@H](C)[C@H](NC(C)=O)C(=O)N[C@@H](CCCCN)C(=O)N1CCN(c2ccc3ncn(CC(=O)N[C@@H](CCCNC(=N)N)C(=O)N[C@@H](Cc4c[nH]cn4)C(=O)N[C@@H](Cc4ccc(O)cc4)C(=O)N[C@@H](CC(C)C)C(=O)N[C@@H](CC(N)=O)C(=O)N[C@@H](Cc4c[nH]c5ccccc45)C(=O)N[C@H](C(=O)N[C@H](C(=O)N[C@@H](CCCNC(=N)N)C(=O)N[C@@H](CCC(N)=O)C(=O)N(C)[C@@H](CCCNC(=N)N)C(=O)N[C@@H](Cc4c(F)cc(O)cc4F)C(N)=O)[C@@H](C)O)C(C)C)c(=O)c3c2)CC1` [Example 27] here?
Answer: > 5 µM

Question: What about the EC50 (Y4R) of the same compound?
Answer: > 5 µM

Question: Which results are given for `CCCCC(=O)N[C@H](C(=O)N[C@@H](CCCCN)C(=O)N1CCN(c2ccc3ncn(CC(=O)N[C@@H](CCCNC(=N)N)C(=O)N[C@@H](Cc4c[nH]cn4)C(=O)N[C@@H](Cc4ccc(O)cc4)C(=O)N[C@@H](CC(C)C)C(=O)N[C@@H](CC(N)=O)C(=O)N[C@@H](Cc4c[nH]c5ccccc45)C(=O)N[C@H](C(=O)N[C@H](C(=O)N[C@@H](CCCNC(=N)N)C(=O)N[C@@H](CCC(N)=O)C(=O)N(C)[C@@H](CCCNC(=N)N)C(=O)N[C@@H](Cc4ccc(O)cc4)C(N)=O)[C@@H](C)O)C(C)C)c(=O)c3c2)CC1)[C@@H](C)CC` [Example 29]?
Answer: EC50 (Y1R): > 5 µM; EC50 (Y5R): > 5 µM; EC50 (Y4R): > 5 µM

Question: For `CC[C@H](C)[C@H](NC(=O)C(C)(C)C)C(=O)N[C@@H](CCCCN)C(=O)N1CCN(c2ccc3ncn(CC(=O)N[C@@H](CCCNC(=N)N)C(=O)N[C@@H](Cc4c[nH]cn4)C(=O)N[C@@H](Cc4ccc(O)cc4)C(=O)N[C@@H](CC(C)C)C(=O)N[C@@H](CC(N)=O)C(=O)N[C@@H](Cc4c[nH]c5ccccc45)C(=O)N[C@H](C(=O)N[C@H](C(=O)N[C@@H](CCCNC(=N)N)C(=O)N[C@@H](CCC(N)=O)C(=O)N(C)[C@@H](CCCNC(=N)N)C(=O)N[C@@H](Cc4ccc(O)cc4)C(N)=O)[C@@H](C)O)C(C)C)c(=O)c3c2)CC1` [Example 30], which EC50 (Y1R) is on record?
Answer: > 5 µM

Question: What about the EC50 (Y5R) of the same compound?
Answer: > 5 µM

Question: What about the EC50 (Y4R) of the same compound?
Answer: > 5 µM

Question: With `CC[C@H](C)[C@H](NC(=O)CC1CCCCC1)C(=O)N[C@@H](CCCCN)C(=O)N1CCN(c2ccc3ncn(CC(=O)N[C@@H](CCCNC(=N)N)C(=O)N[C@@H](Cc4c[nH]cn4)C(=O)N[C@@H](Cc4ccc(O)cc4)C(=O)N[C@@H](CC(C)C)C(=O)N[C@@H](CC(N)=O)C(=O)N[C@@H](Cc4c[nH]c5ccccc45)C(=O)N[C@H](C(=O)N[C@H](C(=O)N[C@@H](CCCNC(=N)N)C(=O)N[C@@H](CCC(N)=O)C(=O)N(C)[C@@H](CCCNC(=N)N)C(=O)N[C@@H](Cc4ccc(O)cc4)C(N)=O)[C@@H](C)O)C(C)C)c(=O)c3c2)CC1` [Example 31] as the compound, how does the EC50 (Y1R) read?
Answer: > 5 µM

Question: What about the EC50 (Y5R) of the same compound?
Answer: > 5 µM

Question: What about the EC50 (Y4R) of the same compound?
Answer: > 5 µM

Question: Which EC50 (Y1R) does the source give for `CC[C@H](C)[C@H](NC(=O)c1ccccc1)C(=O)N[C@@H](CCCCN)C(=O)N1CCN(c2ccc3ncn(CC(=O)N[C@@H](CCCNC(=N)N)C(=O)N[C@@H](Cc4c[nH]cn4)C(=O)N[C@@H](Cc4ccc(O)cc4)C(=O)N[C@@H](CC(C)C)C(=O)N[C@@H](CC(N)=O)C(=O)N[C@@H](Cc4c[nH]c5ccccc45)C(=O)N[C@H](C(=O)N[C@H](C(=O)N[C@@H](CCCNC(=N)N)C(=O)N[C@@H](CCC(N)=O)C(=O)N(C)[C@@H](CCCNC(=N)N)C(=O)N[C@@H](Cc4ccc(O)cc4)C(N)=O)[C@@H](C)O)C(C)C)c(=O)c3c2)CC1` [Example 32] here?
Answer: > 5 µM

Question: And the EC50 (Y5R)?
Answer: > 5 µM

Question: What about the EC50 (Y4R) of the same compound?
Answer: > 5 µM

Question: For “Ile((PEG-30,000)CH2CH2NHCOCH2CH2CO)(ε)Lys-Pqa-Arg-His-Tyr-Leu-Asn-Trp-Val-Thr-Arg-Gln-(NMe)Arg-Tyr-NH2 [Example 41]”, which “body weight gain versus vehicle-treated animals” value (male DIO rats) is on record?
Answer: significant decrease in body weight gain

Question: What about the “basal blood glucose levels versus vehicle-treated animals” value (female db/db mice [1]; 1, 3 and 10 mg/kg, day 8, 15 and 21, female db/db mice (FIG. 25A)) of the same compound?
Answer: reduced basal blood glucose levels

Question: What about the “glucose excursion in response to an oral glucose challenge” value (female db/db mice [1]; day 20, 3 and 10 mg/kg, female db/db mice (FIG. 25B)) of the same compound?
Answer: significantly decreased glucose excursion

Question: What about the “glucose excursion in response to an oral glucose challenge” value (female db/db mice [2]) of the same compound?
Answer: significantly decreased glucose excursion
